Patent US10526352B2, “Tricyclic benzoxaborole compounds and uses thereof” (GlaxoSmithKline Intellectual Property (No.2) Limited, priority 2013, dated 2020)

Test system: M. tuberculosis clinical isolates
Assay: MIC against clinical strains (BACTEC MGIT 960 System)
Format: cell-based
Details: Mycobacterium tuberculosis
[1] = strain 123, resistant clinical isolate, resistance HSERZKTACp
[2] = strain 139, resistant clinical isolate, resistance HSERZKTACp
[3] = strain 141, resistant clinical isolate, resistance HRT
[4] = strain 167, resistant clinical isolate, resistance HSRZ
[5] = strain 175, resistant clinical isolate, resistance S
[6] = strain 198, resistant clinical isolate, resistance H
[7] = strain 242, resistant clinical isolate, resistance H
[8] = strain 330, resistant clinical isolate, resistance HSR (Tables 2B, 2D)
[9] = strain 1672, resistant clinical isolate, resistance HSRZ
[10] = strain 1819, resistant clinical isolate, resistance HSRZ

Structure (SMILES)	MIC [1] [µM]	MIC [2] [µM]	MIC [3] [µM]	MIC [4] [µM]	MIC [5] [µM]	MIC [6] [µM]	MIC [7] [µM]	MIC [8] [µM]	MIC [9] [µM]	MIC [10] [µM]	also measured
Cl.NC[C@H]1OB2OCCOc3ccc(Br)c1c32 [Example 2, (S)-(3-bromo-7,8-dihydro-2H-1,6,9-trioxa-9a-borabenzo[cd]azulen-2-yl)methanamine hydrochloride]	0.08	0.08	0.08	0.08	0.08	0.08	0.08	0.08	0.08	0.04	
Cl.NC[C@H]1OB2OCCOc3ccc(Cl)c1c32 [Example 4, (S)-(3-chloro-7,8-dihydro-2H-1,6,9-trioxa-9a-borabenzo[cd]azulen-2-yl)methanamine hydrochloride]	0.16	0.08	0.08	0.08	0.08	0.08	0.08	0.08	0.08	≤ 0.02	MIC (strain 106, resistant clinical isolate, resistance HR): 0.16 µM; MIC (strain 192, resistant clinical isolate, resistance HS): 0.31 µM; MIC (strain 201, resistant clinical isolate, resistance HRE): 0.08 µM; MIC (strain 202, resistant clinical isolate, resistance S): 0.08 µM; MIC (strain 254, resistant clinical isolate, resistance H): 0.16 µM; MIC (strain 277, resistant clinical isolate, resistance H): 0.08 µM; MIC (strain 297, resistant clinical isolate, resistance HSR): 0.16 µM; MIC (strain 330, resistant clinical isolate, resistance HS): 0.08 µM; MIC (strain 330, resistant clinical isolate, resistance RSR): 0.04 µM; MIC (strain 409, resistant clinical isolate, resistance HR): 0.08 µM; MIC (strain 415, resistant clinical isolate, resistance HRT): 0.08 µM; MIC (strain 514, resistant clinical isolate, resistance HSRT): 0.08 µM; MIC (strain 562, resistant clinical isolate, resistance HSERZKTA): 0.08 µM; MIC (strain 605, resistant clinical isolate, resistance HSERZACp): 0.16 µM; MIC (strain 670, resistant clinical isolate, resistance HRZ): 0.04 µM; MIC (strain 709, resistant clinical isolate, resistance S): 0.08 µM; MIC (strain 732, resistant clinical isolate, resistance S): 0.08 µM; MIC (strain CR, resistant clinical isolate, resistance HSERZ): 0.31 µM
NC[C@H]1OB2OCCOc3ccc(Cl)c1c32 [Example G4-Cl]											MIC (for more than 85 clinical isolate strains of 97 tested (sensitive and resistant)): < 1 µM
